≈ marks a conversion by molar mass, not a printed value.
Tests used:
[1] = Cytotoxicity against human A549 cells assessed as decrease in cell viability after 72 hrs by MTS assay; format: functional, cell-based; conditions: A549, 72 h
[2] = Cytotoxicity against HEK293T cells assessed as decrease in cell viability after 72 hrs by MTS assay; format: toxicity, cell-based, HEK-293T; conditions: human
Salmonella enteritidis = assay: Antibacterial activity against Salmonella enteritidis ATCC 13076 by broth dilution method; format: functional, Salmonella enterica subsp. enterica serovar Enteritidis; conditions: Salmonella enterica
Escherichia coli = assay: Antibacterial activity against Escherichia coli ATCC 25922 by broth dilution method; format: functional
Pseudomonas aeruginosa = assay: Antibacterial activity against Pseudomonas aeruginosa ATCC 27853 by broth dilution method; format: functional
[3] = Cytotoxicity against human MCF7 cells assessed as decrease in cell viability after 72 hrs by MTS assay; format: functional, cell-based; conditions: MCF7, 72 h
[4] = Cytotoxicity against human HepG2 cells assessed as decrease in cell viability after 72 hrs by MTS assay; format: functional, cell-based; conditions: HepG2, 72 h
Staphylococcus aureus = assay: Antibacterial activity against Staphylococcus aureus ATCC 12598 by broth dilution method; format: functional
[5] = Cytotoxicity against human HeLa cells assessed as decrease in cell viability after 72 hrs by MTS assay; format: functional, cell-based
Bacillus spizizenii = assay: Antibacterial activity against Bacillus subtilis ATCC 6633 by broth dilution method; format: functional

Compound	MIC (Salmonella enteritidis)	MIC (Escherichia coli)	MIC (Pseudomonas aeruginosa)	MIC (Staphylococcus aureus)	MIC (Bacillus spizizenii)	IC50 [1]	IC50 at 72 h [2]	IC50 [3]	IC50 [4]	IC50 [5]
O=C1C=C[C@]23Oc4ccc(O)c5c4[C@](Oc4cccc1c42)(O3)[C@@H]1O[C@@H]1C5=O	> 50 µg/mL	> 50 µg/mL	> 50 µg/mL	13 µg/mL (≈ 35.9 µM)	50 µg/mL (≈ 138 µM)	6.2 µM	17 µM	4.2 µM	8.5 µM	14 µM
Oc1ccc2c3c1[C@@H](O)[C@H]1O[C@H]1[C@]31Oc3cccc4c3[C@](C=C[C@@H]4O)(O2)O1	> 50 µg/mL	> 50 µg/mL	> 50 µg/mL	6.2 µg/mL (≈ 16.9 µM)	13 µg/mL (≈ 35.5 µM)	40.2 µM	> 100 µM	71 µM	> 100 µM	> 100 µM
O=C1c2c(O)ccc3c2[C@@]2(Oc4cccc5c4[C@](C=C[C@@H]5O)(O3)O2)[C@@H]2O[C@H]12	> 50 µg/mL	> 50 µg/mL	> 50 µg/mL	13 µg/mL (≈ 35.7 µM)	25 µg/mL (≈ 68.6 µM)	7.7 µM	6.9 µM	3.1 µM	3.6 µM	18 µM
CO[C@@H]1CC(=O)c2cccc3c2[C@@]12Oc1ccc(O)c4c1[C@](O3)(O2)[C@H](O)CC4=O						36.1 µM	83 µM	13 µM	83 µM	> 100 µM
O=C1CC[C@]23Oc4ccc(O)c5c4[C@](Oc4cccc1c42)(O3)[C@@H]1O[C@@H]1[C@@H]5O						76.2 µM	86 µM	> 100 µM	> 100 µM	> 100 µM
O=C(O)c1cn(C2CC2)c2cc(N3CCNCC3)c(F)cc2c1=O [CIPROFLOXACIN]	0.25 µg/mL (≈ 0.754 µM)			0.25 µg/mL (≈ 0.754 µM)	0.5 µg/mL (≈ 1.51 µM)					
COc1cccc2c1C(=O)c1c(O)c3c(c(O)c1C2=O)C[C@@](O)(C(=O)CO)C[C@@H]3O[C@H]1C[C@H](N)[C@@H](O)[C@H](C)O1 [EPIRUBICIN]						0.63 µM		0.71 µM		0.42 µM
O=C1C=C[C@]23Oc4ccc(O)c5c4[C@](Oc4cccc1c42)(O3)[C@@H]1O[C@@H]1[C@@H]5O [PREUSSOMERIN D]						6.6 µM	24 µM	9.8 µM	38 µM	21 µM

The next lines start with results.

MIC (Salmonella enteritidis)	MIC (Escherichia coli)	MIC (Pseudomonas aeruginosa)	MIC (Staphylococcus aureus)	MIC (Bacillus spizizenii)	Compound	IC50 [1]	IC50 at 72 h [2]	IC50 [3]	IC50 [4]	IC50 [5]
> 50 µg/mL	> 50 µg/mL	> 50 µg/mL	3.2 µg/mL (≈ 7.19 µM)	25 µg/mL (≈ 56.2 µM)	CO[C@@H]1[C@H](Cl)C(=O)c2c(O)ccc3c2[C@@]12Oc1cccc4c1[C@](O3)(O2)[C@H](OC)CC4=O	8.9 µM	11 µM	6.2 µM	7.7 µM	27 µM
> 50 µg/mL	> 50 µg/mL	> 50 µg/mL	> 50 µg/mL	> 50 µg/mL	CO[C@@H]1CC(=O)c2cccc3c2[C@@]12Oc1ccc(O)c4c1[C@](O3)(O2)[C@@H]1O[C@@H]1[C@@H]4O [PREUSSOMERIN C]	> 100 µM	> 100 µM	> 100 µM	> 100 µM	> 100 µM
> 50 µg/mL	> 50 µg/mL	> 50 µg/mL	1.6 µg/mL (≈ 4.39 µM)	13 µg/mL (≈ 35.7 µM)	O=C1CC[C@]23Oc4ccc(O)c5c4[C@](Oc4cccc1c42)(O3)[C@@H]1O[C@@H]1C5=O	9.4 µM	12 µM	2.6 µM	4.4 µM	19 µM
> 50 µg/mL	> 50 µg/mL	> 50 µg/mL	6.2 µg/mL (≈ 14.4 µM)	50 µg/mL (≈ 116 µM)	CO[C@@H]1CC(=O)c2cccc3c2[C@@]12Oc1ccc(O)c4c1[C@](O3)(O2)[C@H](O)[C@H](Cl)C4=O	8.5 µM	4.8 µM	5.9 µM	13 µM	19 µM
> 50 µg/mL	> 50 µg/mL	> 50 µg/mL	50 µg/mL (≈ 131 µM)	25 µg/mL (≈ 65.7 µM)	O=C1C[C@@H](O)[C@]23Oc4ccc(O)c5c4[C@](Oc4cccc1c42)(O3)[C@@H]1O[C@@H]1C5=O	5.4 µM	9.4 µM	2.5 µM	3.8 µM	15 µM
